Measurements published in US10815274B2, “Immunogenic WT-1 peptides and methods of use thereof” (Memorial Sloan Kettering Cancer Center, priority 2012, dated 2020).
Where a SMILES comes first, the peptide text is derived from it.

Experiments:
Conditions in all cases: 50:1 E:T
[1] = system: WT1- allo APC with restricting HLA allele; experiment: Cr51 release assay, cytotoxic CTL response vs unloaded allogeneic APC sharing restricting HLA allele; assay type: cell-based, human
WT1- autologous APC = experiment: Cr51 release assay, cytotoxic CTL response vs unmodified autologous APC; assay type: cell-based, human
[2] = system: WT1 peptide loaded autologous APC; experiment: Cr51 release assay, cytotoxic CTL response vs peptide loaded autologous APC; assay type: cell-based, human
[3] = system: WT1+ allo APC with restricting HLA allele loaded with WT1 peptide; experiment: Cr51 release assay, cytotoxic CTL response vs peptide loaded allogeneic APC sharing restricting HLA allele (HLA restriction)

CC(C)C[C@H](NC(=O)[C@H](CO)NC(=O)[C@@H]1CCCN1C(=O)[C@@H]1CCCN1C(=O)[C@H](Cc1ccccc1)NC(=O)[C@@H](N)Cc1c[nH]cn1)C(=O)N1CCC[C@H]1C(=O)N1CCC[C@H]1C(=O)N[C@H](C(=O)O)[C@@H](C)O [SEQ ID NO: 145] (H-HFPPSLPPT-OH; N-terminus and C-terminus assumed)
Cytotoxic CTL response, % vs WT1- allo APC with restricting HLA allele ([1]; HLA allele A3101): 0% | Cytotoxic CTL response, % vs WT1- autologous APC (WT1- autologous APC; HLA allele A3101): 0% | Cytotoxic CTL response, % vs WT1 peptide loaded autologous APC ([2]; HLA allele A3101): 42% | Cytotoxic CTL response, % vs WT1+ allo APC with restricting HLA allele loaded with WT1 peptide ([3]; HLA allele A3101): 27%

CC(C)C[C@H](NC(=O)[C@H](CS)NC(=O)CNC(=O)[C@@H]1CCCN1)C(=O)N[C@@H](CCC(N)=O)C(=O)N[C@@H](CCC(N)=O)C(=O)N1CCC[C@H]1C(=O)N[C@@H](CCC(=O)O)C(=O)N[C@@H](CCC(N)=O)C(=O)N[C@@H](CCC(N)=O)C(=O)NCC(=O)O [SEQ ID NO: 149] (H-PGCLQQPEQQG-OH; N-terminus and C-terminus assumed)
Cytotoxic CTL response, % vs WT1- allo APC with restricting HLA allele ([1]; HLA allele DRB10101): 1% | Cytotoxic CTL response, % vs WT1- autologous APC (WT1- autologous APC; HLA allele DRB10101): 6% | Cytotoxic CTL response, % vs WT1 peptide loaded autologous APC ([2]; HLA allele DRB10101): 54% | Cytotoxic CTL response, % vs WT1+ allo APC with restricting HLA allele loaded with WT1 peptide ([3]; HLA allele DRB10101): 25%

CC(C)C[C@H](NC(=O)[C@@H](NC(=O)[C@@H]1CCCN1C(=O)[C@H](C)NC(=O)[C@H](Cc1c[nH]c2ccccc12)NC(=O)[C@H](CCC(N)=O)NC(=O)[C@H](C)NC(=O)[C@H](C)NC(=O)CN)C(C)C)C(=O)O [SEQ ID NO: 154] (H-GAAQWAPVL-OH; N-terminus and C-terminus assumed)
Cytotoxic CTL response, % vs WT1- allo APC with restricting HLA allele ([1]; HLA allele B3901): 0% | Cytotoxic CTL response, % vs WT1- autologous APC (WT1- autologous APC; HLA allele B3901): 2% | Cytotoxic CTL response, % vs WT1 peptide loaded autologous APC ([2]; HLA allele B3901): 31% | Cytotoxic CTL response, % vs WT1+ allo APC with restricting HLA allele loaded with WT1 peptide ([3]; HLA allele B3901): 19%

C[C@H](N)C(=O)N[C@@H](CS)C(=O)N[C@@H](CCCNC(=N)N)C(=O)N[C@@H](Cc1ccc(O)cc1)C(=O)NCC(=O)N1CCC[C@H]1C(=O)N[C@@H](Cc1ccccc1)C(=O)NCC(=O)N1CCC[C@H]1C(=O)O [SEQ ID NO: 159] (H-ACRYGPFGP-OH; N-terminus and C-terminus assumed)
Cytotoxic CTL response, % vs WT1- allo APC with restricting HLA allele ([1]; HLA allele B4402): 7% | Cytotoxic CTL response, % vs WT1- autologous APC (WT1- autologous APC; HLA allele B4402): 8% | Cytotoxic CTL response, % vs WT1 peptide loaded autologous APC ([2]; HLA allele B4402): 46% | Cytotoxic CTL response, % vs WT1+ allo APC with restricting HLA allele loaded with WT1 peptide ([3]; HLA allele B4402): 23%

CSCC[C@H](NC(=O)[C@H](CCCNC(=N)N)NC(=O)[C@H](C)NC(=O)[C@H](CCC(N)=O)NC(=O)CNC(=O)[C@@H](N)CO)C(=O)N[C@@H](Cc1ccccc1)C(=O)N1CCC[C@H]1C(=O)N[C@@H](CC(N)=O)C(=O)O [SEQ ID NO: 160] (H-SGQARMFPN-OH; N-terminus and C-terminus assumed)
Cytotoxic CTL response, % vs WT1- allo APC with restricting HLA allele ([1]; HLA allele B3503): 3% | Cytotoxic CTL response, % vs WT1- allo APC with restricting HLA allele ([1]; HLA allele C0401): 3% | Cytotoxic CTL response, % vs WT1- autologous APC (WT1- autologous APC; HLA allele B3503): 0% | Cytotoxic CTL response, % vs WT1- autologous APC (WT1- autologous APC; HLA allele C0401): 0% | Cytotoxic CTL response, % vs WT1 peptide loaded autologous APC ([2]; HLA allele B3503): 84% | Cytotoxic CTL response, % vs WT1 peptide loaded autologous APC ([2]; HLA allele C0401): 84% | Cytotoxic CTL response, % vs WT1+ allo APC with restricting HLA allele loaded with WT1 peptide ([3]; HLA allele B3503): 41% | Cytotoxic CTL response, % vs WT1+ allo APC with restricting HLA allele loaded with WT1 peptide ([3]; HLA allele C0401): 41%

CC(C)C[C@H](NC(=O)[C@H](CS)NC(=O)[C@H](CO)NC(=O)[C@@H]1CCCN1)C(=O)N[C@@H](CCC(=O)O)C(=O)N[C@@H](CO)C(=O)N[C@@H](CCC(N)=O)C(=O)N1CCC[C@H]1C(=O)N[C@@H](C)C(=O)O [SEQ ID NO: 162] (H-PSCLESQPA-OH; N-terminus and C-terminus assumed)
Cytotoxic CTL response, % vs WT1- allo APC with restricting HLA allele ([1]; HLA allele B3501): 0% | Cytotoxic CTL response, % vs WT1- autologous APC (WT1- autologous APC; HLA allele B3501): 0% | Cytotoxic CTL response, % vs WT1 peptide loaded autologous APC ([2]; HLA allele B3501): 35% | Cytotoxic CTL response, % vs WT1+ allo APC with restricting HLA allele loaded with WT1 peptide ([3]; HLA allele B3501): 21%
